According to US20220089568A1 (Janssen Biotech, Inc., priority 2019, published 2022):

Assays:
human DHODH = molecular target: T1, human DHODH (Homo sapiens, UniProt Q02127); assay: DHODH Enzymatic Assay; type: biochemical; conditions: purified human DHODH; DCIP absorbance, end-point mode
T1 construct: purchased Proteros PR-0044
Method in brief: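 Purified human DHODH activity read as absorbance of DCIP, the terminal electron acceptor, in […] pH 7.5, 150 mM NaCl, 0.5 mM EDTA, 0.1% Triton X-100. Reaction started with a substrate mix of 20 mM DHO, 5 mM CoQ6 and 1 mM DCIP in assay buffer.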

MOLM-13 cells = assay: MOLM-13 Cellular Assay; type: cell-based; conditions: Homo sapiens, 72 hours exposure, cell viability by CellTiter-Glo
Procedure: The day prior to assay set-up, cells were pelleted, resuspended in fresh media, counted, and cells were plated at 0.4×10^6 cell/mL in a T150 flask. […] Cells were exposed to different concentrations of test compounds at 37° C., 5% CO2 for 72 hours immediately after seeding.

T1 sequence (Q02127 whole entry): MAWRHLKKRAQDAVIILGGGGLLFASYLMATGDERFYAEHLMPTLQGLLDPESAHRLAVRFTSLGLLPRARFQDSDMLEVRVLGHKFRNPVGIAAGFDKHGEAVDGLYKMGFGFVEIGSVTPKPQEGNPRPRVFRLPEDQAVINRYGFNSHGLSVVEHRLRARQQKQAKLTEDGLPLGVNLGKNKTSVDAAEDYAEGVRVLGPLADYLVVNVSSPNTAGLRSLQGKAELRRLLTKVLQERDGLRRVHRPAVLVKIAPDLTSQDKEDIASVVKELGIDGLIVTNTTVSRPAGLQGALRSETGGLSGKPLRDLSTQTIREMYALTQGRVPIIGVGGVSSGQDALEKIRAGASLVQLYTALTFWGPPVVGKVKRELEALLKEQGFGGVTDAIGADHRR

SMILES	EC50 (human DHODH) [nM]	EC50 (MOLM-13 cells) [nM]
CCOc1ncc(F)c(NC(=O)c2cc(F)c(-n3nc(CO)n(CC)c3=O)nc2O[C@@H](C)C(F)(F)F)n1 [Example 70, (S)-N-(2-Ethoxy-5-fluoropyrimidin-4-yl)-6-(4-ethyl-3-(hydroxymethyl)-5-oxo-4,5-dihydro-1H-1,2,4-triazol-1-yl)-5-fluoro-2-((1,1,1-trifluoropropan-2-yl)oxy)nicotinamide]	489	> 100
CCn1c(CO)nn(-c2nc(O[C@@H](C)C(F)(F)F)c(C(=O)Nc3nccn3C3CC3)cc2F)c1=O [Example 73, (S)-N-(1-Cyclopropyl-1H-imidazol-2-yl)-6-(4-ethyl-3-(hydroxymethyl)-5-oxo-4,5-dihydro-1H-1,2,4-triazol-1-yl)-5-fluoro-2-((1,1,1-trifluoropropan-2-yl)oxy)nicotinamide]	95.2	> 100
CCn1c(CO)nn(-c2nc(O[C@@H](C)C(F)(F)F)c(C(=O)Nc3cc(C#N)cnc3Cl)cc2F)c1=O [Example 75, (S)-N-(2-Chloro-5-cyanopyridin-3-yl)-6-(4-ethyl-3-(hydroxymethyl)-5-oxo-4,5-dihydro-1H-1,2,4-triazol-1-yl)-5-fluoro-2-((1,1,1-trifluoropropan-2-yl)oxy)nicotinamide]	19.2	> 100
CCn1c(CO)nn(-c2nc(O[C@@H](C)C(F)(F)F)c(C(=O)Nc3ccc(C)nc3Cl)cc2F)c1=O [Example 77, N-(2-Chloro-6-methyl-3-pyridyl)-6-[4-ethyl-3-(hydroxymethyl)-5-oxo-1,2,4-triazol-1-yl]-5-fluoro-2-[(1S)-2,2,2-trifluoro-1-methyl-ethoxy]pyridine-3-carboxamide]	14	13.2
CCn1c(CO)nn(-c2nc(O[C@@H](C)C(F)(F)F)c(C(=O)Nc3cc(F)cnc3Cl)cc2F)c1=O [Example 78, N-(2-Chloro-5-fluoro-3-pyridyl)-6-[4-ethyl-3-(hydroxymethyl)-5-oxo-1,2,4-triazol-1-yl]-5-fluoro-2-[(1S)-2,2,2-trifluoro-1-methyl-ethoxy]pyridine-3-carboxamide]	12.3	25
CCn1c(CO)nn(-c2nc(O[C@@H](C)C(F)(F)F)c(C(=O)Nc3cn(C)nc3Cl)cc2F)c1=O [Example 80, N-(3-Chloro-1-methyl-pyrazol-4-yl)-6-[4-ethyl-3-(hydroxymethyl)-5-oxo-1,2,4-triazol-1-yl]-5-fluoro-2-[(1S)-2,2,2-trifluoro-1-methyl-ethoxy]pyridine-3-carboxamide]	7.2	12.9
CCn1c(CO)nn(-c2nc(O[C@@H](C)C(F)(F)F)c(C(=O)Nc3cc(C(F)F)ncc3F)cc2F)c1=O [Example 81, N-[2-(Difluoromethyl)-5-fluoro-4-pyridyl]-6-[4-ethyl-3-(hydroxymethyl)-5-oxo-1,2,4-triazol-1-yl]-5-fluoro-2-[(1S)-2,2,2-trifluoro-1-methyl-ethoxy]pyridine-3-carboxamide]	568	> 100
CCn1c(CO)nn(-c2nc(O[C@@H](C)C(F)(F)F)c(C(=O)Nc3nc(OC)ncc3F)cc2F)c1=O [Example 82, 6-[4-Ethyl-3-(hydroxymethyl)-5-oxo-1,2,4-triazol-1-yl]-5-fluoro-N-(5-fluoro-2-methoxy-pyrimidin-4-yl)-2-[(1S)-2,2,2-trifluoro-1-methyl-ethoxy]pyridine-3-carboxamide]	729	> 100
Cc1ccnc(Cl)c1NC(=O)c1cc(F)c(-n2nc(CO)n(C(C)C)c2=O)nc1O[C@@H](C)C(F)(F)F [Example 89, N-(2-Chloro-4-methyl-3-pyridyl)-5-fluoro-6-[3-(hydroxymethyl)-4-isopropyl-5-oxo-1,2,4-triazol-1-yl]-2-[(1S)-2,2,2-trifluoro-1-methyl-ethoxy]pyridine-3-carboxamide]	10.7	4.09

Compounds with a lower EC50 (human DHODH), results first:

EC50 (human DHODH) [nM]	EC50 (MOLM-13 cells) [nM]	SMILES
5.7	46.5	CCn1c(CO)nn(-c2nc(O[C@@H](C)C(F)(F)F)c(C(=O)Nc3cc(C)cnc3Cl)cc2F)c1=O [Example 67, (S)-N-(2-Chloro-5-methylpyridin-3-yl)-6-(4-ethyl-3-(hydroxymethyl)-5-oxo-4,5-dihydro-1H-1,2,4-triazol-1-yl)-5-fluoro-2-((1,1,1-trifluoropropan-2-yl)oxy)nicotinamide]
5.6	21.1	CCn1c(CO)nn(-c2nc(O[C@@H](C)C(F)(F)F)c(C(=O)Nc3c(C)cncc3F)cc2F)c1=O [Example 71, (S)-6-(4-Ethyl-3-(hydroxymethyl)-5-oxo-4,5-dihydro-1H-1,2,4-triazol-1-yl)-5-fluoro-N-(3-fluoro-5-methylpyridin-4-yl)-2-((1,1,1-trifluoropropan-2-yl)oxy)nicotinamide]
5.1	4.8	CCCn1c(CO)nn(-c2nc(O[C@@H](C)C(F)(F)F)c(C(=O)Nc3c(C)ccnc3Cl)cc2F)c1=O [Example 84, N-(2-Chloro-4-methyl-3-pyridyl)-5-fluoro-6-[3-(hydroxymethyl)-5-oxo-4-propyl-1,2,4-triazol-1-yl]-2-[(1S)-2,2,2-trifluoro-1-methyl-ethoxy]pyridine-3-carboxamide]
3.9	1.8	Cc1ccnc(Cl)c1NC(=O)c1cc(F)c(-n2nc(CF)n(C(C)C)c2=O)nc1O[C@@H](C)C(F)(F)F [Example 86, (S)-2-(5-(((2-Chloro-4-methylpyridin-3-yl)-l2-azaneyl)carbonyl)-3-fluoro-6-((1,1,1-trifluoropropan-2-yl)oxy)pyridin-2-yl)-5-(fluoromethyl)-4-isopropyl-2,4-dihydro-3H-1,2,4-triazol-3-one]
3.6	27.9	CCn1c(CO)nn(-c2nc(O[C@@H](C)C(F)(F)F)c(C(=O)Nc3c(N(C)C)ccnc3OC)cc2F)c1=O [Example 76, (S)-N-(4-(Dimethylamino)-2-methoxypyridin-3-yl)-6-(4-ethyl-3-(hydroxymethyl)-5-oxo-4,5-dihydro-1H-1,2,4-triazol-1-yl)-5-fluoro-2-((1,1,1-trifluoropropan-2-yl)oxy)nicotinamide]
1.9	5.3	CCn1c(CO)nn(-c2nc(O[C@@H](C)C(F)(F)F)c(C(=O)Nc3c(Cl)ccnc3C)cc2F)c1=O [Example 79, N-(4-Chloro-2-methyl-3-pyridyl)-6-[4-ethyl-3-(hydroxymethyl)-5-oxo-1,2,4-triazol-1-yl]-5-fluoro-2-[(1S)-2,2,2-trifluoro-1-methyl-ethoxy]pyridine-3-carboxamide]
1.7	13	CCn1c(CO)nn(-c2nc(O[C@@H](C)C(F)(F)F)c(C(=O)Nc3cc(C#N)ccc3Cl)cc2F)c1=O [Example 74, (S)-N-(2-Chloro-5-cyanophenyl)-6-(4-ethyl-3-(hydroxymethyl)-5-oxo-4,5-dihydro-1H-1,2,4-triazol-1-yl)-5-fluoro-2-((1,1,1-trifluoropropan-2-yl)oxy)nicotinamide]
1.16	2.34	CCn1c(CO)nn(-c2nc(OC(C)C)c(C(=O)Nc3c(C)cnc(OC)c3Cl)cc2F)c1=O [Example 88, N-(3-Chloro-2-methoxy-5-methyl-4-pyridyl)-6-[4-ethyl-3-(hydroxymethyl)-5-oxo-1,2,4-triazol-1-yl]-5-fluoro-2-isopropoxy-pyridine-3-carboxamide]
0.91	1.1	CCn1c(CO)nn(-c2nc(O[C@@H](C)C(F)(F)F)c(C(=O)Nc3c(C)cnc(OC)c3C)cc2F)c1=O [Example 85, 6-[4-Ethyl-3-(hydroxymethyl)-5-oxo-1,2,4-triazol-1-yl]-5-fluoro-N-(2-methoxy-3,5-dimethyl-4-pyridyl)-2-[(1S)-2,2,2-trifluoro-1-methyl-ethoxy]pyridine-3-carboxamide]
0.895	1.4	CCn1c(CO)nn(-c2nc(O[C@@H](C)C(F)(F)F)c(C(=O)Nc3c(C)cc(C)nc3Cl)cc2F)c1=O [Example 72, (S)-N-(2-Chloro-4,6-dimethylpyridin-3-yl)-6-(4-ethyl-3-(hydroxymethyl)-5-oxo-4,5-dihydro-1H-1,2,4-triazol-1-yl)-5-fluoro-2-((1,1,1-trifluoropropan-2-yl)oxy)nicotinamide]
0.87	0.886	CCn1c(CO)nn(-c2nc(O[C@@H](C)C(F)(F)F)c(C(=O)Nc3c(C)ccnc3OC)cc2F)c1=O [Example 68, (S)-6-(4-Ethyl-3-(hydroxymethyl)-5-oxo-4,5-dihydro-1H-1,2,4-triazol-1-yl)-5-fluoro-N-(2-methoxy-4-methylpyridin-3-yl)-2-((1,1,1-trifluoropropan-2-yl)oxy)nicotinamide]
0.69	0.73	CCn1c(CO)nn(-c2nc(O[C@@H](C)C(F)(F)F)c(C(=O)Nc3c(Cl)ccc(C)c3C)cc2F)c1=O [Example 83, N-(6-Chloro-2,3-dimethyl-phenyl)-6-[4-ethyl-3-(hydroxymethyl)-5-oxo-1,2,4-triazol-1-yl]-5-fluoro-2-[(1S)-2,2,2-trifluoro-1-methyl-ethoxy]pyridine-3-carboxamide]
0.611	0.673	CCn1c(CO)nn(-c2nc(O[C@@H](C)C(F)(F)F)c(C(=O)Nc3c(Cl)ccnc3Cl)cc2F)c1=O [Example 69, (S)-N-(2,4-Dichloropyridin-3-yl)-6-(4-ethyl-3-(hydroxymethyl)-5-oxo-4,5-dihydro-1H-1,2,4-triazol-1-yl)-5-fluoro-2-((1,1,1-trifluoropropan-2-yl)oxy)nicotinamide]
0.448	1.14	CCn1c(CF)nn(-c2nc(O[C@@H](C)C(F)(F)F)c(C(=O)Nc3c(C)ccnc3Cl)cc2F)c1=O [Example 87, N-(2-Chloro-4-methyl-3-pyridyl)-6-[4-ethyl-3-(fluoromethyl)-5-oxo-1,2,4-triazol-1-yl]-5-fluoro-2-[(1S)-2,2,2-trifluoro-1-methyl-ethoxy]pyridine-3-carboxamide]
